# US20160206604A1, “FORMULATIONS COMPRISING WETTING AGENTS AND COMPOUNDS FOR THE MODULATION OF HEMOGLOBIN (S)” (GLOBAL BLOOD THERAPEUTICS, INC., priority 2013, published 2016)
# Values joined by “and” are separate entries in the source; they are usually repeats but may differ in a detail not shown here. Equal entries are not always repeated. Where two headings read alike, the source gives them in different places.
# How the values were obtained:
# [1] = Pharmacokinetic (PK) properties in rats, oral or intravenous dosing; type: in vivo, Rats (Sprague-Dawley); details: for blood plasma ratio: male, Sprague-Dawley, rat, whole blood and plasma, po, 10 mg/kg, dosed orally
# Protocol: This experiment was established and used in order to assess the pharmacokinetic (PK) properties of the compounds.
# Sample collection and data analysis: Rats (Sprague-Dawley, male, 8-12 weeks old) were dosed with one of three compounds corresponding to compound 12, compound 22 or compound 23. The rats received oral (10 mg/kg) or intravenous (1 mg/kg) doses of the compound. Rats were fasted overnight before the experiments and provided with food after the 2 hour sampling time point.
# (§1) Blood samples were collected at different time points. Blood was anti-coagulated by 3.2% TSC (trisodium citrate) and a portion was separated into plasma fraction by centrifugation and removal of blood cells. Plasma and lysed blood samples were analyzed for drug concentration using LC-MS/MS. PK parameters were calculated by non compartmental analysis of the concentration-time profiles using WinNonLin software (Pharsight, Mountain View, Calif.). Apparent elimination half-life (t1/2) values were calculated as ln(2)/k. Area under the concentration-time curve (AUC) values were estimated using the linear trapezoidal method. AUClast values were calculated from the dosing time to the last measurable concentration. AUCinf values were calculated as the sum of the corresponding AUClast and the ratio of the last detectable concentration divided by k. Plasma clearance (Cl) is calculated from Dose/AUCinf. Volume of distribution at steady state (Vss) is calculated from Mean Residence Timeinf×Clss. Maximum concentration (Cmax) and time to Cmax (Tmax) was recorded as observed. The blood/plasma partitioning ratio was calculated at each experimental time point.
# HbS/A = target: T1, HbS/A (Homo sapiens, UniProt P68871+P69905, E7V); assay: R/T assay (relaxed-to-tense transition assay); type: biochemical; details: for R-T (9 μM)/(delta R), class / R-T (9 μM)/(delta R): 9 μM compound; for R-T (9 μM)/(delta R) / R-T (10 μM)/(delta R): 3 μM HbS/A; for R-T (10 μM)/(delta R), class / R-T (10 μM)/(delta R): 10 μM compound
# T1 construct: A mixture of HbS/A was purified from blood obtained from homozygous sickle cell patients; from tissue; host or cells: blood of homozygous sickle cell patients; hemoglobin purified from it
# Protocol: This ability can be expressed as a “delta R” value (i.e., the change in the time-period of the R state after hemoglobin is treated with a compound, as compared to the period without treatment with the compound). Delta R is the % R to remaining after the compounds treatment compared with no treatment (e.g. if R % without treatment is 8% while with treatment with a target compound is 48% R at 30 μM, then % R is 40% for that compound.
# A mixture of HbS/A was purified from blood obtained from homozygous sickle cell patients though the Hemoglobinopathy Center at Children's Hospital Oakland Research Institute (CHORI) with Institutional Review Board approval. HbS/A (at a final concentration of 3 μM) was incubated for 1 hr at 37° C. in presence or absence of compounds in […] potassium phosphate buffer, pH=7.4 and 30 μM 2, 3 diphosphoglycerate (DPG) in 96 well plates in a final volume of 160 μl. Compounds were added at different concentrations (3 μM to 100 μM final concentrations). Plates were covered with a Mylar film. After incubation was completed the Mylar cover was removed and the plates were placed in a Spectrostar Nano plate reader previously heated at 37° C. Five minutes later, N2 (flow rate=20 L/min) was flowed through the spectrophotometer. Spectroscopic measurements (300 nm to 700 nm) were taken every 5 min for 2 hours. Data analysis was performed by using linear regression from the data retrieved for all wavelengths.
# Results: Table 3 below lists the delta R values where “+” indicates a delta R of between 0 and 30, “++” indicates a delta R of between 30 and 50, and “+++” indicates a delta R of 50 or greater.
# HbS [2] = target: T2, HbS (Homo sapiens, UniProt P68871+P69905, E7V); assay: Polymerization assay; type: biochemical; design: HbS is purified by the CRO VIRUSYS, from blood obtained from homozygous sickle cell patients; tissue VIRUSYS (CRO that did the purification); host or cells: blood of homozygous sickle cell patients; details: 75 μM compound; for Polymerization (75 μM)/(% DT): 50 μM purified HbS, percent delay time
# Protocol: Polymerization assays are carried out in vitro using purified HBS exchanged into 1.8 M potassium phosphate buffer at pH 7.4. Using a slightly modified protocol (Antonini and Brunori, 1971), HbS is purified by the CRO VIRUSYS, from blood obtained from homozygous sickle cell patients through the Hemoglobinopathy Center at Children's Hospital Oakland Research Institute (CHORI) with Institutional Review Board approval. Compounds are prepared in 100% DMSO and a desired amount is added to 50 μM of purified HbS at a final DMSO concentration of 0.3%. Final potassium phosphate concentration is adjusted to 1.8 M using a combination of 2.5 M potassium phosphate stock solution and water at pH 7.4. The reaction mixture is incubated for an hour at 37° C. and then transferred into a 24-well plate for deoxygenation in a glove box containing 99.5% nitrogen and 0.5% oxygen. The 24-well plate is not covered and incubated at 4° C. on a plate cooler inside the glove box for one and a half hours. Fifty μL of the reaction mixture is transferred into a 96-well plate and the absorbance at 700 nm is measured every minute for one hour at 37° C. in a plate reader located inside the glove box. A plot of the absorbance against time is fitted using a Boltzman sigmoidal fit and the delay time (from zero to time at half Vmax) is measured. To compare and rank compounds, delay times are expressed as percent delay (% DT), which is defined as the difference in delay times for HbS/compound and HbS alone multiplied by 100 and divided by the delay time for HbS alone.
# Results: Compounds listed below have been tested in the polymerization assay. Activity ranges are defined by the number of dagger (†) symbols indicated. † denotes activity ≧40% but ≦80%; †† denotes activity >80% but ≦120%; ††† denotes activity >120% but ≦140%; †††† denotes activity >[…].
# HbS [3] = target: T2, HbS; assay: Reverse Hemox assay (oxygen equilibrium curves of whole blood); type: cell-based; design: Oxygen Equilibrium Curves (OEC) of whole blood before and after treatment; from tissue; host or cells: whole blood (red blood cells) of homozygous sickle cell patients; details: 1 mM compound, sickle cell whole blood; for Reverse Hemox (1 mM)/(delta p50%): hematocrit 20%, 1 hour 37° C.
# Protocol: Oxygen Equilibrium Curves (OEC) of whole blood before and after treatment with different concentrations of compounds 12, 22 and 23 were performed as follows using a HEMOX analyzer (TCS Scientific, New Hope, Pa.). Blood samples from homozygous sickle cell patients were obtained though the Hemoglobinopathy Center at Children's Hospital Oakland Research Institute (CHORI) with Institutional Review Board approval. The hematocrit was adjusted to 20% using autologous plasma and the blood samples were incubated for 1 hour at 37° C. in absence or presence of compounds. 100 μl of these samples were added to 5 mL of Hemox buffer (30 mM TES, 130 mM NaCl, 5 mM KCl, pH=7.4) at 37° C. and then transferred to the Hemox sample chamber. The samples were saturated with oxygen by flushing with compressed air for 10 minutes. The samples were then flushed with pure nitrogen and the respective absorbances of oxy- and deoxy-Hb were recorded as a function of the solution pO2. The oxygen equilibrium data were then fitted to the Hill Model to obtain values for p50. The deoxygenation curves for both whole blood alone (control) and whole blood in the presence of the compound were collected with the TCS software.
# Results: Table 3 below lists the delta p50% values where “+” indicates a delta p50% of between 0 and 29, “++” indicates a delta p50% of between 30 and 50, and “+++” indicates a delta p50% of 50 or greater.
# [4] = Pharmacokinetics of compound 12 following oral administration of compound 53 formulation, rats; details: following oral administration 10 mg/kg
# [5] = Pharmacokinetics of compound 12 suspension formulation (methylcellulose/sodium dodecyl sulfate), oral, rats; type: in vivo, Sprague-Dawley rats
# Protocol: as §1
# A suspension of Compound 12 was prepared by triturating 250 mg of compound 12 in a mortar with 2 mL of 0.5% methylcellulose in water and 200 μL of 0.5% sodium dodecyl sulfate. After approximately 5 minutes, the suspension was homogeneous. The volume of the mixture was adjusted to 12.5 mL with 0.5% methylcellulose to obtain a final concentration of 20 mg/mL. To prepare a 10 mg/mL suspension of compound 12, the 20 mg/mL suspension was diluted two-fold with 0.5% methylcellulose.
# Pharmacokinetics of compound 12 following an oral administration of compound 12 suspension at 50 mg/kg or 100 mg/kg were studied in male Sprague-Dawley rats (n=3/group) using the method described in Example 1. Maximum blood concentration of compound 12 was achieved within 6 hours. The maximum concentrations at 50 mg/kg and 100 mg/kg compound 12 were 281 μg/mL (903 μM) and 327 μg/mL (1050 μM), respectively.
# hemoglobin = hemoglobin (Homo sapiens, UniProt P68871+P69905); assay: In vitro system measuring binding to hemoglobin and human serum albumin; details: both proteins present in their respective physiologic ratio
# Protocol: However, when the red blood cell compartment is considered, compound 12 unexpectedly partitions into blood to a far greater extent than compound 22 or compound 23. […] When the red blood cell/plasma ratio was measured at the peak concentration, compound 12 partitioned at a ratio of 70 to 1 into the erythrocytes attesting to its preferential partition into the compartment which contains the drug target hemoglobin. Supportive data was reported in an in vitro system measuring binding of compound 12 to hemoglobin and human serum albumin.
# [6] = overall exposure, read-out: Blood/plasma (Ratio of exposure AUCINF)
SMILES,"blood plasma ratio [1, 6]","R-T (9 μM)/(delta R), class (HbS/A)",R-T (9 μM)/(delta R) (HbS/A),"R-T (10 μM)/(delta R), class (HbS/A)",R-T (10 μM)/(delta R) (HbS/A),"Polymerization (75 μM)/(% DT), class (HbS [2])",Polymerization (75 μM)/(% DT) (HbS [2]) [%],"Reverse Hemox (1 mM)/(delta p50%), class (HbS [3])",Reverse Hemox (1 mM)/(delta p50%) (HbS [3]) [%],"blood plasma ratio ([1]; at Cmax, read-out: Blood/plasma (Ratio of peak concentration))",in vivo conversion of prodrug [4],red blood cell/plasma ratio at the peak concentration ([1]; ratio to 1 into erythrocytes),"AUC(0-inf) ([5]; male, Sprague-Dawley, rat, blood, oral suspension 50 mg/kg) [µg·h/mL]","half-life ([5]; male, Sprague-Dawley, rat, blood, oral suspension 50 mg/kg or 100 mg/kg, read-out: mean terminal half-life) [h]","AUC(0-inf) ([5]; male, Sprague-Dawley, rat, blood, oral suspension 100 mg/kg) [µg·h/mL]",time to maximum blood concentration ([5]; oral suspension 50 mg/kg or 100 mg/kg) [h],"maximum concentration ([5]; oral suspension 50 mg/kg, blood)","maximum concentration ([5]; oral suspension 100 mg/kg, blood)",binding to hemoglobin versus human serum albumin (hemoglobin)
"COc1cc(C=O)c(OCc2cccnc2-c2ccnn2CC(F)F)cn1 [Compound 22, 5-[[2-[2-(2,2-difluoroethyl)pyrazol-3-yl]pyridin-3-yl]methoxy]-2-methoxypyridine-4-carbaldehyde]",5,++ (“++” indicates a delta R of between 30 and 50),31.02,++ (“++” indicates a delta R of between 30 and 50),36.25,†† (†† denotes activity >80% but ≦120%),90.22,+++ (“+++” indicates a delta p50% of 50 or greater),68.69,,,,,,,,,,
"COc1cc(C=O)c(OCc2cccnc2-c2ccccc2C)cn1 [Compound 23, 2-methoxy-5-[[2-(2-methylphenyl)pyridin-3-yl]methoxy]pyridine-4-carbaldehyde]",1,++ (“++” indicates a delta R of between 30 and 50),37.15,+++ (“+++” indicates a delta R of 50 or greater),51.55,†† (†† denotes activity >80% but ≦120%),98.19,+++ (“+++” indicates a delta p50% of 50 or greater),72.45,3,,,,,,,,,
"CC(C)n1nccc1-c1ncccc1COc1cccc(OP(=O)(O)O)c1C=O [Compound 53, 2-formyl-3-((2-(1-isopropyl-1H-pyrazol-5-yl)pyridin-3-yl)methoxy)phenyl dihydrogen phosphate]",,,,,,,,,,,converted to compound 12,,,,,,,,
"CC(C)n1nccc1-c1ncccc1COc1cccc(O)c1C=O [Compound 12, 2-hydroxy-6-[[2-(2-propan-2-ylpyrazol-3-yl)pyridin-3-yl]methoxy]benzaldehyde]",,+++ (“+++” indicates a delta R of 50 or greater),65.45,+++ (“+++” indicates a delta R of 50 or greater),62.75,†† (†† denotes activity >80% but ≦120%),108.56,+++ (“+++” indicates a delta p50% of 50 or greater),79.83,,,70,7340,16 to 19,9460,≤ 6,281 μg/mL and 903 μM,327 μg/mL and 1050 μM,preferentially binding to hemoglobin
